Results as given in patent US20170143835A1, “SUBSTITUTED ANIONIC COMPOUNDS CONSISTING OF A BACKBONE MADE UP OF A DISCRETE NUMBER OF SACCHARIDE UNITS” (ADOCIA, priority 2012, published 2017).
Values belong to the substance of their own block, whether it stands above or below them.

How the values were obtained:
[1] = molecular target: serum albumin (BSA) (Bos taurus, UniProt P02769); assay: Fluorescence test for interaction with albumin; assay type: binding, bovine; conditions: for Result F/F0 <0.5: compound/BSA weight ratio 1, excitation 280 nm, emission 350 nm; for Result F/F0 <0.5 / Result F/F0 <0.85: BSA 0.5 mg/ml, PBS pH 7.4
Protocol: The test carried out is a “fluorescence” test with albumin, which makes it posible, by measuring the variations in fluorescence of albumin, to verify whether an interaction exists between the compound tested and albumin.
The compound/albumin solutions are prepared from stock solutions of compounds and of serum albumin (BSA) by mixing the appropriate volumes in order to obtain a fixed BSA concentration at 0.5 mg/ml and compound/BSA weight ratios of 1, 5 and 10. These solutions are prepared in a PBS buffer at pH 7.4.
200 μl of the various compound/BSA solutions are introduced into a 96-well plate. The fluorescence measurements are carried out at room temperature (20° C.) with an EnVision® fluorescence spectrometer (PerkinElmer). The excitation wavelength is 280 nm and the emission wavelength is 350 nm. This corresponds to the fluorescence of the tryptophan residues of albumin (Ruiz-Peña M. et al., M, A. Physico-chemical studies of molecular interactions between non-ionic surfactants and bovine serum albumin, Colloids Surf. B Biointerfaces 2010, 75, 282-289). The F (compound/BSA)/F0 (BSA alone) ratio makes it possible to evaluate the interaction between the compound and albumin. If this ratio is less than 1, this means that the compound induces partial quenching of the albumin fluorescence linked to a change in environment of the tryptophan residues. This change reflects an interaction between the compound and albumin. It was verified, as a control, that, for all the compounds tested, the fluorescence of the compound alone is negligible considering the fluorescence of albumin (fluorescence (compound) <2% fluorescence (albumin)).

[2] = molecular target: T1, lysozyme (Gallus gallus, UniProt P00698); assay: Turbidity measurement assays of compound/lysozyme solutions; assay type: physicochemical; conditions: for Turbidity of the solutions at the molar ratio 0.1: compound/lysozyme molar ratio 0.1; for Turbidity of the solutions at the molar ratio 0.1 / Turbidity of the solutions at the molar ratio 0.5: histidine buffer pH 6.2, NaCl, HACH 2100AN turbidity meter; for Turbidity of the solutions at the molar ratio 0.5: compound/lysozyme molar ratio 0.5; for turbidity of the compound/lysozyme solution compared with the counterexample/lysozyme solutions: whatever the ratio
T1 construct: purchased Sigma-Aldrich L6876
Protocol: The turbidity of solutions in which a “model” protein, lysozyme and either a compound according to the invention or a counterexample compound are brought together is analyzed in the compound/lysozyme molar ratios of 0, 0.1 and 0.5.
The following solutions are prepared beforehand: histidine buffer solution, pH 6.2±0.1, at 194 mM (30 mg/ml), sodium chloride (NaCl) solution at 5017 mM (293 mg/ml), solution of lysozyme (Sigma-Aldrich, Ref L6876, CAS#12650-88-3) at […] ([…]), and solutions of each of the test products (pH 6.2±0.1), i.e. compounds according to the invention and counterexamples.
For each of the solutions of compounds to be prepared, 3 ml of an aqueous solution of compound are adjusted to pH 6.2±0.1 using 50±25 μl of a 0.1N hydrochloric acid (HCl) solution.
The test solutions at the compound/lysozyme molar ratios: 0, 0.1 and 0.5 are then prepared as follows.
The sodium chloride (NaCl) solution at 5017 mM, the histidine buffer solution at 194 mM and then the solution of compound are successively added to water, which results in a mixture which is homogenized on a roller mixer (Stuart Roller Mixer SRT9D) for 1 minute.
The lysozyme solution is, finally, added and then the final mixture is homogenized on the roller mixer for 1 minute.
The turbidity (expressed in NTU) for each of the final test solutions is measured using a HACH 2100AN turbidity meter.
The turbidity of the compound 1/lysozyme solution is analyzed in comparison with that of the counterexample A1/lysozyme and counterexample A2/lysozyme solutions. The turbidity of the compound 13/lysozyme solution is analyzed in comparison with that of the counterexample B1/lysozyme and counterexample B2/lysozyme solutions.

Sequence of serum albumin (BSA) (P02769 25-607): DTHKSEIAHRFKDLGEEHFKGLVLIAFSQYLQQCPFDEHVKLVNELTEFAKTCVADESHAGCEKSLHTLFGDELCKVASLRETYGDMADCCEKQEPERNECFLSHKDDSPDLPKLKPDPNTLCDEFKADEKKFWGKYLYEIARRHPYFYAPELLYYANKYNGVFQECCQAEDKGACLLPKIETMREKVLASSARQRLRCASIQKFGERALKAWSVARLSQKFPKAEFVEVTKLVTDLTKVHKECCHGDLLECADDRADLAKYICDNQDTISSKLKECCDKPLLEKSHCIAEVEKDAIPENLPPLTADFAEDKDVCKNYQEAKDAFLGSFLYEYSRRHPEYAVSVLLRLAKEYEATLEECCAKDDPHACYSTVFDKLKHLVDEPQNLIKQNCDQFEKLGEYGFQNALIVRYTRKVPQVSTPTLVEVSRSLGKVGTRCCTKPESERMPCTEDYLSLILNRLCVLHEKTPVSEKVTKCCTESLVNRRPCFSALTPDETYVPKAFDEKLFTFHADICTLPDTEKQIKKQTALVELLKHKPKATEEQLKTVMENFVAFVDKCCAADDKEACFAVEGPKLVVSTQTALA
T1 sequence (P00698 19-147): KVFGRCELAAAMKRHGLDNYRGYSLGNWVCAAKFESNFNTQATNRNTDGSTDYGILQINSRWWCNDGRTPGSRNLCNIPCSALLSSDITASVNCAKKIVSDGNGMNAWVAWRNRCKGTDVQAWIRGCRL

Substance: Sodium maltotriosemethylcarboxylate Functionalized with 2-[(2-dodecanoylamino-6-dodecanoylamino)hexanoylamino]ethanamine [Compound 20]
Result F/F0 <0.5 [1]: YES

Substance: Sodium maltotriosemethylcarboxylate Functionalized with 2-[(2octanoylamino-6-octanoylamino)hexanoylamino]ethanamine [Compound 27]
Result F/F0 <0.5 [1]: YES

Substance: Sodium maltotriosemethylcarboxylate Functionalized with L-phenylalanine [Compound 1]
Turbidity of the solutions at the molar ratio 0.1 [2]: 55 NTU
Turbidity of the solutions at the molar ratio 0.5 [2]: 4.8 NTU
turbidity of the compound/lysozyme solution compared with the counterexample/lysozyme solutions [2]: lower

Substance: Sodium maltotriosemethylcarboxylate Functionalized with L-phenylalanine [Compound 2]
Result F/F0 <0.85 ([1]; compound/BSA weight ratio 5): YES
Result F/F0 <0.85 ([1]; compound/BSA weight ratio 10): YES
fluorescence ratio F/F0 ([1]; compound/BSA weight ratio of 5): < 0.85
fluorescence ratio F/F0 ([1]; compound/BSA weight ratio of 10): < 0.85

Substance: Sodium maltotriosemethylcarboxylate Functionalized with cholesteryl leucinate [Compound 13]
Turbidity of the solutions at the molar ratio 0.1 [2]: 32 NTU
Turbidity of the solutions at the molar ratio 0.5 [2]: 395 NTU
turbidity of the compound/lysozyme solution compared with the counterexample/lysozyme solutions [2]: lower

Substance: Sodium maltotriosesuccinate Functionalized with dilauryl aspartate [Compound 22]
Result F/F0 <0.5 [1]: YES

More lines, now with the values ahead:

Result F/F0 <0.5 [1]: YES
Substance: Sodium maltotriosemethylcarboxylate Functionalized with 2-aminoethyl dodecanoate [Compound 29]

Result F/F0 <0.5 [1]: YES
Substance: Sodium maltotriosemethylcarboxylate Functionalized with 3,7-dimethyloctanoyl phenylalaninate [Compound 30]

Result F/F0 <0.5 [1]: YES
Substance: Sodium maltotriosemethylcarboxylate Functionalized with N-(2-aminoethyl)dodecanamide [Compound 21]

Result F/F0 <0.5 [1]: YES
Substance: Sodium maltotriosemethylcarboxylate Functionalized with decanoyl glycinate [Compound 23]
